Measured values: patent US8168651B2, “Protein kinase modulators” (Cylene Pharmaceuticals, Inc., priority 2008, dated 2012)
Where two headings read alike, the source gives them in different places.

Legend:
recombinant human CK2 = recombinant human CK2 (Homo sapiens (Human), UniProt P68400); experiment: CK2 assay (cell-free, 33P-ATP filter plate); type: biochemical
[1] = system: HCT-116 human colorectal carcinoma cells; experiment: Cell-proliferation assay using Alamar Blue dye; type: cell-based; conditions: Homo sapiens;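 further: cells exposed to compound for about 4 days, then Alamar Blue added and dye fluorescence read after about 4 h, compared with medium-only control wells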
recombinant human PIM1 = recombinant human PIM1 (Homo sapiens (Human), UniProt P11309); experiment: PIM-1 kinase activity in cell-free in vitro assay; type: biochemical; conditions: for inhibition at 0.5 µM: 500 nM compound, read-out: PIM-1: % inh 500 nM
recombinant human PIM1, sequence (P11309 whole entry): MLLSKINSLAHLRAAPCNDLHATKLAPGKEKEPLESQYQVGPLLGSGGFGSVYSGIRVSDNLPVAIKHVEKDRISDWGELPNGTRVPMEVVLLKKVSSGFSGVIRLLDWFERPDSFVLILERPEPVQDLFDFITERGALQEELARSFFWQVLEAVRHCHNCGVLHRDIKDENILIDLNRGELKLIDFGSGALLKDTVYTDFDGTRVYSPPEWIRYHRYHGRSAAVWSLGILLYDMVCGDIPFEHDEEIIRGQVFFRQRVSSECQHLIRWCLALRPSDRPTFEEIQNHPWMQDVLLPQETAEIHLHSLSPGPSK

[2] = HCT-116, read-out: HCT-116 (uM), cell proliferation modulatory activity, HCT-116, first column
[3] = HCT-116, read-out: HCT-116 (uM), cell proliferation modulatory activity, HCT-116, second column
[4] = HCT-116, HCT-116, first column, read-out: HCT-116 (uM), cell proliferation modulatory activity
[5] = HCT-116, HCT-116, second HCT-116 column (c8), read-out: HCT-116 (uM), cell proliferation modulatory activity
[6] = HCT-116, read-out: HCT-116 (uM), cell proliferation modulatory activity, HCT-116, second HCT-116 column (c8)
[7] = HCT-116, HCT-116, second column, read-out: HCT-116 (uM), cell proliferation modulatory activity

recombinant human CK2, sequence (P68400 whole entry): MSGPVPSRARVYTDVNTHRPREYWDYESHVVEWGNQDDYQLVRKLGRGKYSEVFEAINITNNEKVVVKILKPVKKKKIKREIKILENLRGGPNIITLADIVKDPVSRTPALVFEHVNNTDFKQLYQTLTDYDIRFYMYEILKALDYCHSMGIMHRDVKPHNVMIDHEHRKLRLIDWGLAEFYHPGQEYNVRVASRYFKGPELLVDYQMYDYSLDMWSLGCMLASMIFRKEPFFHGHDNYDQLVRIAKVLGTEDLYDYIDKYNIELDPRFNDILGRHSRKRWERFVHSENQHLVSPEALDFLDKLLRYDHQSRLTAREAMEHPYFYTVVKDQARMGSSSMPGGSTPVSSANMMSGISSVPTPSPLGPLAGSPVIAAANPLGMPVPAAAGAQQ
recombinant human CK2, sequence (P67870 whole entry partner): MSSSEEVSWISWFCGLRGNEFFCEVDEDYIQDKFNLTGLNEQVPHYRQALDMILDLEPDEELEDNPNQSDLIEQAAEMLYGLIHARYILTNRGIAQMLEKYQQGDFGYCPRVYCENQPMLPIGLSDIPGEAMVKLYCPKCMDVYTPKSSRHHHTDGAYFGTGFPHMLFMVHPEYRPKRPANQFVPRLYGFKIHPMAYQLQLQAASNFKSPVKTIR

inhibition at 0.5 µM (recombinant human PIM1; cell-free)	IC50 [1, 3]	SMILES	other results
–	–	CC(C)(C)OC(=O)N1CCN(C(=O)c2ccc3c(c2)[nH]c(=O)c2ccsc23)CC1	inhibition at 10 µM (recombinant human CK2; 10 uM, read-out: CK2 % inhib @ 10 uM): -25%
–	–	CN(C)CCNc1nc2cc(C#N)ccc2c2sccc12 [drawing 612]	inhibition at 1 µM (recombinant human CK2; read-out: CK2 % inhibition 1.0 uM, 1.0 uM): 0%
6.5%	–	O=C(O)c1ccc2c(c1)nc(Nc1cccc(O)c1)c1ccsc12	IC50 [1, 2]: 10 µM
74.7%	> 10 µM	CN(C)CCNC(=O)c1cccc(Nc2nc3cc(C(=O)O)ccc3c3sccc23)c1	IC50 (recombinant human PIM1; cell-free): 0.436 µM
-40.1%	–	O=C(O)c1ccc2c(c1)nc(Nc1nc3ccccc3[nH]1)c1ccsc12	IC50 [1, 4]: 10 µM
61%	> 10 µM	CCc1cccc(Nc2nc3cc(-c4nnn[nH]4)ccc3c3sccc23)c1	IC50 (recombinant human PIM1; cell-free): > 1.1 µM
35.4%	–	CCC(c1ccccc1)c1nc2cc(C(=O)O)ccc2c2sccc12 (stereo not drawn)	IC50 [1, 4]: 10 µM
–	–	CN1CCN(c2nc3cc(C(=O)NNc4ccccn4)ccc3c3sccc23)CC1	IC50 [1, 5]: > 10 µM; inhibition at 0.5 µM (recombinant human PIM1; cell-free assay): -10.9%
46.4%	> 10 µM	O=C(O)c1ccc2c(c1)nc(Nc1cccc(C(=O)N3CCOCC3)c1)c1ccsc12	–
–	–	CC(C)OCCNC(=O)c1ccc2c(c1)nc(N1CCN(C)CC1)c1ccsc12	IC50 [1, 5]: > 10 µM; inhibition at 0.5 µM (recombinant human PIM1; cell-free assay): -3.62%
–	–	C#Cc1cccc(Nc2nc3cc(C(=O)O)ccc3c3cnc(NCCOC)nc23)c1	IC50 [1, 6]: 8.05 µM; inhibition at 0.5 µM (recombinant human PIM1; cell-free assay): 55.5%; IC50 (recombinant human PIM1; cell-free assay): > 1.1 µM
71.1%	> 10 µM	CN(C)CCNC(=O)c1cccc(Nc2nc3cc(-c4nnn[nH]4)ccc3c3sccc23)c1	IC50 (recombinant human PIM1; cell-free): 0.38 µM
40.5%	> 10 µM	O=C(O)c1ccc2c(c1)nc(Nc1cccc(I)c1)c1ccsc12	–
51.9%	> 10 µM	O=C(O)c1ccc2c(c1)nc(Nc1ccc3[nH]ccc3c1)c1ccsc12	IC50 (recombinant human PIM1; cell-free): 0.679 µM
23.4%	–	COc1cccc(Nc2nc3cc(C(=O)O)ccc3c3sccc23)c1	IC50 [1, 2]: 10 µM
7.28%	–	OCCCOc1nc2ccccc2c2ccccc12	IC50 [1, 4]: 10 µM

inhibition at 0.5 µM (recombinant human PIM1; cell-free)	IC50 [1, 3]	SMILES	other results
40.8%	–	OCCCOc1nc2cc(-c3nnn[nH]3)ccc2c2ccccc12	IC50 [1, 4]: 10 µM
5.78%	–	O=c1[nH]c(-c2ccc3c(c2)nc(Nc2ccccc2)c2ccsc23)no1 [drawing 1434]	IC50 [1, 7]: 10 µM
3.04%	–	N#Cc1ccc2c(c1)nc(OCCCO)c1ccccc12	IC50 [1, 4]: 10 µM
64.6%	> 10 µM	C#Cc1cccc(Nc2nc3cc(-c4nnn[nH]4)ccc3c3sccc23)c1	IC50 (recombinant human PIM1; cell-free): 0.716 µM
66.4%	–	Clc1ccc(Nc2nc3cc(-c4nnn[nH]4)ccc3c3sccc23)cc1	IC50 [1, 2]: 10 µM; IC50 (recombinant human PIM1; cell-free): 0.501 µM
–	–	O=C(O)c1ccc2c(c1)nc(NCc1cccnc1)c1nc(NC3CC3)ncc12 [drawing 1625]	IC50 [1, 6]: > 10 µM; inhibition at 0.5 µM (recombinant human PIM1; cell-free assay): 26.9%
29.6%	> 10 µM	O=C(NCc1cccnc1)c1cccc(Nc2nc3cc(-c4nnn[nH]4)ccc3c3sccc23)c1	–
38%	> 10 µM	CNC(=O)Cc1cccc(Nc2nc3cc(C(=O)O)ccc3c3sccc23)c1	–
-21.2%	–	c1ccc(CNc2nc3cc(-c4nnn[nH]4)ccc3c3sccc23)cc1	IC50 [1, 7]: > 10 µM
71.6%	–	c1ccc2c(c1)ncn2-c1nc2cc(-c3nnn[nH]3)ccc2c2sccc12	IC50 [1, 7]: 15 µM; IC50 (recombinant human PIM1; cell-free): > 1.1 µM
57.7%	> 10 µM	CCOc1cccc(Nc2nc3cc(-c4nnn[nH]4)ccc3c3sccc23)c1	IC50 (recombinant human PIM1; cell-free): 0.384 µM
–	–	N#Cc1ccc2c(c1)nc(NCCO)c1ccsc12	IC50 [1, 5]: > 10 µM; inhibition at 0.5 µM (recombinant human PIM1; cell-free assay): -2.91%
31.9%	> 10 µM	CC(C)Oc1cccc(Nc2nc3cc(-c4nnn[nH]4)ccc3c3sccc23)c1	–
-38.1%	–	NC(=O)c1ccc2c(c1)nc(Nc1ccccc1)c1ccsc12 [drawing 1432]	IC50 [1, 7]: 8.7 µM
49.1%	> 10 µM	CN(C)C(=O)c1cccc(Nc2nc3cc(-c4nnn[nH]4)ccc3c3sccc23)c1	–
